In patent US8372866B2, “2-aryl and 2-heteroaryl 4H-1-benzopyran-4-one-6-amidino derivatives, new pharmacological agents for the treatment of arthritis, cancer and related pain” (Rottapharm S.p.A., priority 2008, dated 2013):
pIC50: −log10 of the molar value. Where a name gives a salt, the structure may show the parent alone. Read-outs that look alike come from different tables or passages of the source.

Legend:
[1] = tested on: Zymosan-induced mechanical hyperalgesia; test: Zymosan-induced mechanical hyperalgesia (Randall-Selitto), model of inflammatory pain; type: in vivo, rat; details: for ED50: read-out: ED50 4 hrs
Method: In this model, typically a male Sprague-Dawley or Wistar rat (200-250 g) receives an interplantar injection of 3 mg/100 μl zymosan into one hind paw. A marked inflammation occurs in this hind paw. Drugs are administered orally for evaluation of efficacy, 30 min. before the inflammatory insult. […] The quantisation of the analgesic effect is achieved by an analgesimeter, which consists in applying to the inflamed paw an increasing weight (from 130-140 g up to 500 g). […] For each test compound, at least three doses were used, with 8 animals per group. Compounds of the invention were tested at 10, 20 and 40 mg/Kg.

[2] = biological target: T1, recombinant human aggrecanase 1 (ADAMTS-4) (Homo sapiens, UniProt O75173); test: InviLISA Aggrecanase activity assay, aggrecanase 1; type: biochemical; details: inhibitors tested at 10 μM final concentration
T1 construct: ADAMTS-4 aminoacids F213-A579 with C-terminal tag; purchased Invitek GmbH, Berlin
T1 sequence (O75173 213-579): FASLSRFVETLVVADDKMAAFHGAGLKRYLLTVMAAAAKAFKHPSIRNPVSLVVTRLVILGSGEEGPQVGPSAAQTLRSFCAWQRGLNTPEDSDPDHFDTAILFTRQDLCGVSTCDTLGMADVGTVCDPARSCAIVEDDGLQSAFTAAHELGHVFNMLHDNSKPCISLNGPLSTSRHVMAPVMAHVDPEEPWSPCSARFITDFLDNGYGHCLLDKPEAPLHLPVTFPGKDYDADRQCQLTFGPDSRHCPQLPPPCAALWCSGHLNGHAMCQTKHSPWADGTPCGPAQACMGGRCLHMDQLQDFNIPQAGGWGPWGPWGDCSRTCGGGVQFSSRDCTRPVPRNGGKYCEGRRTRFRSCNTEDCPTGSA
Method: (§1) The InviLISA Aggrecanase activity assay (Invitek GmbH, Berlin) was used to screen and characterise aggrecanase inhibitors. The assay was carried out in two steps, according to Will et al. (Will H, Dettloff M, Bendzko P, Svenshnikov P, A Quantitative Assay for aggrecanase Activity; 2005, Journal of Biomolecular Techniques, 16 (4), 459-472). A recombinant fragment of human aggrecan interglobular domain (aggrecan-IGD; T331-G458) is first digested with aggrecanase. Proteolytic cleavage of the substrate releases an aggrecan peptide with the N-terminal sequence ARGSVIL (ARGSVIL-peptide), that was then quantified with two monoclonal anti-peptide antibodies (ELISA module). For precise calculation of product, ARGSVIL-peptide standard concentrations were run in parallel.
(§2) 1) Proteolysis of aggrecan-IGD by aggrecanase. Aggrecan-IGD was incubated with standard recombinant human aggrecanase 1 (ADAMTS-4 aminoacids F213-A579 with C-terminal tag) or standard recombinant human aggrecanase 2 (ADAMTS-5 aminoacids S262-G625 with C-terminal tag) in the absence (total enzymatic activity) or presence (modulated enzymatic activity) of inhibitors to be tested. Enzymes were pre-incubated with the inhibitors or the appropriate concentration of diluent as control (DMSO 0.25% final concentration in proteolysis), at 4° C. for 30 min prior to assaying their activity. Five microliters of mix enzyme-inhibitor were added to the substrate (0.1 μM final concentration) in a total volume of 100 μL and incubated for 15 minutes at 37° C. The reaction was terminated with EDTA-containing buffer. The inhibitors were tested at 10 μM final concentration and compounds achieving ≧50% inhibitory effect were evaluated for IC50 calculation, in a range generally extended from 0.1 to 10 μM final concentration.
(§3) 2) Aggrecan peptide ELISA. ARGSVIL-peptide standard, proteolytic digestion of Aggrecan-IGD with standard aggrecanases and test samples were incubated in microtiter wells pre-coated with anti-ARGSVIL-neoepitope antibody. ARGSVIL-peptide is bound to the coated antibody, while other components are removed by washing and aspiration. The bound ARGSVIL-peptide was detected with a second peroxidase-labelled antibody. Any excess of the conjugate was removed by washing and aspiration. The amount of peroxidase bound to different wells was determined in reactions with peroxidase substrate TMB. The reactions are stopped by addition of sulphuric acid solution and absorbance is read at 450 nm in a microtiter plate spectrophotometer.

[3] = biological target: T2, recombinant human aggrecanase 2 (ADAMTS-5) (Homo sapiens, UniProt Q9UNA0); test: InviLISA Aggrecanase activity assay, aggrecanase 2; type: biochemical; details: for inhibition at 10 µM: inhibitors tested at 10 μM final concentration
T2 construct: ADAMTS-5 aminoacids S262-G625 with C-terminal tag; purchased Invitek GmbH, Berlin
T2 sequence (Q9UNA0 262-625): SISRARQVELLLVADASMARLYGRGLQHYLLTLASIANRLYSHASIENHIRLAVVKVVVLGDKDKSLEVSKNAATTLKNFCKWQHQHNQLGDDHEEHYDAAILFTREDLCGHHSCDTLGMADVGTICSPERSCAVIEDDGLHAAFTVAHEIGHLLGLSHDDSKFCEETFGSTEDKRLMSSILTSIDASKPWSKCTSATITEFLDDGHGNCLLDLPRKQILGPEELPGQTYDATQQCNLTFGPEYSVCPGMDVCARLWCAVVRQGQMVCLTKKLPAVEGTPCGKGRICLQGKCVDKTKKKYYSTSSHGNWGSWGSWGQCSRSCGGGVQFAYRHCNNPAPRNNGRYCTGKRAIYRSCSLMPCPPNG
Method: as §1, §2, §3

[4] = tested on: CFA-induced prolonged inflammation; test: CFA model of chronic inflammatory pain (Randall-Selitto); type: in vivo, rat; details: for MPE 0.5 hrs / MPE 1.5 hrs / MPE 3 hrs / MPE 6 hrs / MPE 24 hrs: NE = not effective; for ED100 0.5 hrs: IP, calculated from the MPE data at 0.5 hrs; for ED50: Rattus norvegicus, ip, 0.5 h, read-out: ED50 0.5 hrs
[5] = tested on: mechanical hyperalgesia associated with STZ-induced diabetes; test: STZ-induced diabetes mechanical hyperalgesia, model of neuropathic pain (Randall-Selitto); type: in vivo, rat
Method: Painful diabetic neuropathy is one of the most common complications of insulin-dependent diabetes in man; in particular, diabetes can be associated with neuropathic pain which fails to be treated by classical analgesics. Streptozotocin (STZ)-induced diabetes in the rat has been increasingly used as a model of painful diabetic neuropathy to assess the efficacies of potential analgesic agents (C. Courteix, Pain 1993, 53, 81-8). A representative compound of the invention was tested for efficacy in reducing mechanical hyperalgesia associated with STZ-induced diabetes in the rat, according to the experimental model as described by the literature. Diabetes was produced with the injection of a single dose (75 mg/Kg i.p.) of STZ. In the following four weeks after the induction of diabetes the clinical symptoms (weight, body and skin temperature, motility and hyperglycemia) progressively developed by the animals, are strictly monitored.
After four weeks, the scores obtained in diabetic rats to various pain stimuli (in particular mechanical stimuli) were greater than those in normal rats, indicating hyperalgesia. The hyperalgesia induced by diabetes was evaluated using the Randall-Selitto method as above described, and quantitated using the analgesimeter. Also in this case, the difference in the mechanical pain threshold between the basal value (generally 230-250 g) and the one tolerated by the animals treated with the drug, is defined as mechanical hyperalgesia. The compound of the invention was administered i.p. (solution, Tween 80, 10% in saline) at different doses, and mechanical hyperalgesia was measured at the reported time, as maximum percent effect (MPE) which represents the difference (%) in pain threshold between the animals treated with the drug and the controls that received only the vehicle, compared with the weight borne by naïf non-diabetic controls. A 100% protection means that the diabetic animals treated with the compound can tolerate the same stimulus (weight) as the naïf non-diabetic animals. MPE higher than 100% means that the diabetic animal treated with the compound can tolerate stimuli (weight) higher than the control non-diabetic animals (hypoalgesia).
In Table 4, the effect of a representative compound of formula (I), in the above described model of neuropathic pain, is compared with some known pharmacological standards used for the clinical treatment of this pathology. In particular, from the MPE data at 0.5 hrs, the doses yielding a protection of 50% (ED50) and 100% (ED100) have been calculated.

[6] = rat, OS, 4 hrs after zymosan, NC = not calculable
[7] = 10 mg/Kg IP, NE = not effective
[8] = 30 mg/Kg IP, NE = not effective
[9] = 50 mg/Kg IP, NE = not effective

Cc1ccc(-c2cc(C(F)(F)F)nn2-c2ccc(S(N)(=O)=O)cc2)cc1 [Celecoxib, reference compound]
ED50 [1, 6]: 9 mg/kg

CC(=N)Nc1ccc2oc(-c3ccccc3)cc(=O)c2c1 [Example 1, 2-phenyl-6-[(1-iminoethyl)amino]-4H-1-benzopyran-4-one hydrochloride]
inhibition at 10 µM [2]: 10%
inhibition at 10 µM [3]: 30%
ED50 ([1]; Rattus norvegicus, 4 h): 7.9 mg/kg
ED100 4 hrs [1, 6]: 19 mg/kg
MPE 0.5 hrs ([4]; 3 mg/Kg IP): 30%
MPE 1.5 hrs ([4]; 3 mg/Kg IP): 50%
MPE 3 hrs ([4]; 3 mg/Kg IP): 40%
MPE 0.5 hrs ([4]; 10 mg/Kg IP): 62%
MPE 1.5 hrs ([4]; 10 mg/Kg IP): 39%
MPE 0.5 hrs ([4]; 30 mg/Kg IP): 261%
MPE 1.5 hrs ([4]; 30 mg/Kg IP): 190%
MPE 3 hrs ([4]; 30 mg/Kg IP): 37%
ED100 0.5 hrs [4]: 8.06 mg/kg
ED50 [4]: 4.86 mg/kg
MPE 0.5 hrs ([5]; 3 mg/Kg IP, NE = not effective): 74%
MPE 1.5 hrs ([5]; 3 mg/Kg IP, NE = not effective): 25%
MPE 0.5 hrs [5, 7]: 109%
MPE 1.5 hrs [5, 7]: 54%
MPE 0.5 hrs [5, 8]: 113%
MPE 1.5 hrs [5, 8]: 39%
MPE 3 hrs [5, 8]: 39%
MPE 6 hrs [5, 8]: 31%
protection ([5]; at the doses of 10 and 30 mg/kg): higher than 100%
efficacy in STZ neuropathic pain paradigm ([5]; rat, in vivo): high efficacy

COc1ccc(-c2cc(=O)c3cc(NC(C)=N)ccc3o2)cc1 [Example 2, 2-(4-methoxyphenyl)-6-[(1-iminoethyl)amino]-4H-1-benzopyran-4-one hydrochloride monohydrate]
inhibition at 10 µM [2]: 30%
inhibition at 10 µM [3]: 30%
ED50 ([1]; Rattus norvegicus, 4 h): 6.5 mg/kg
ED100 4 hrs [1, 6]: 18 mg/kg
MPE 0.5 hrs ([4]; 3 mg/Kg IP): 91%
MPE 1.5 hrs ([4]; 3 mg/Kg IP): 87%
MPE 3 hrs ([4]; 3 mg/Kg IP): 32%
MPE 0.5 hrs ([4]; 10 mg/Kg IP): 193%
MPE 1.5 hrs ([4]; 10 mg/Kg IP): 105%
MPE 3 hrs ([4]; 10 mg/Kg IP): 42%
MPE 6 hrs ([4]; 10 mg/Kg IP): 43%
MPE 24 hrs ([4]; 10 mg/Kg IP): 38%
MPE 0.5 hrs ([4]; 30 mg/Kg IP): 254%
MPE 1.5 hrs ([4]; 30 mg/Kg IP): 190%
MPE 3 hrs ([4]; 30 mg/Kg IP): 146%
MPE 6 hrs ([4]; 30 mg/Kg IP): 89%
MPE 24 hrs ([4]; 30 mg/Kg IP): 45%
ED100 0.5 hrs [4]: 3.15 mg/kg
ED50 [4]: 1.56 mg/kg

CC(=N)Nc1ccc2oc(-c3ccc(F)cc3)cc(=O)c2c1 [Example 3, 2-(4-fluorophenyl)-6-[(1-iminoethyl)amino]-4H-1-benzopyran-4-one]
inhibition at 10 µM [2]: 40%
pIC50 [3]: 5.00
ED100 4 hrs [1, 6]: 24 mg/kg
ED50 [1, 6]: 12 mg/kg

CC(=N)Nc1ccc2oc(-c3ccc4c(c3)OCO4)cc(=O)c2c1 [Example 4, 2-(benzo[1,3]dioxol-5-yl)-6-[(1-iminoethyl)amino]-4H-1-benzopyran-4-one hydrochloride]
inhibition at 10 µM [2]: 40%
inhibition at 10 µM [3]: 10%
ED50 ([1]; Rattus norvegicus, 4 h): 12 mg/kg
ED100 4 hrs [1, 6]: 35 mg/kg

COc1ccc(C(=N)Nc2ccc3oc(-c4ccc(OC)cc4)c(O)c(=O)c3c2)cc1 [Example 14, N-[2-(4-methoxyphenyl)-3-hydroxy-4H-1-benzopyran-4-one-6-yl]-4-methoxybenzene carboxiimidamide hydrochloride]
inhibition at 10 µM [2]: 0%
pIC50 [3]: 5.00

CC(=N)Nc1ccc2oc(-c3ccc4c(c3)CCO4)c(O)c(=O)c2c1 [Example 15, 2-(dihydrobenzofuran-5-yl)-3-hydroxy-6-[(1-iminoethyl)amino]-4H-1-benzopyran-4-one hydrochloride]
inhibition at 10 µM [2]: 10%
pIC50 [3]: 4.82

CC(=N)Nc1ccc2oc(-c3ccc4c(c3)OCO4)c(O)c(=O)c2c1 [Example 16, 2-(benzo[1,3]dioxol-5-yl)-3-hydroxy-6-[(1-iminoethyl)amino]-4H-1-benzopyran-4-one hydrochloride]
inhibition at 10 µM [2]: 32%
pIC50 [3]: 5.30

N=C(CC1CC1)Nc1ccc2oc(-c3ccc4c(c3)OCO4)c(O)c(=O)c2c1 [Example 18]
inhibition at 10 µM [2]: 0%
pIC50 [3]: 5.37

COCCC(=N)Nc1ccc2oc(-c3ccc4c(c3)OCO4)c(O)c(=O)c2c1 [Example 19, 2-(benzo[1,3]dioxol-5-yl)-3-hydroxy-6-[(1-iminopropyl-3-methoxy)amino]-4H-1-benzopyran-4-one hydrochloride]
inhibition at 10 µM [2]: 0%
pIC50 [3]: 5.10

COc1ccc(-c2oc3ccc(NC(C)=N)cc3c(=O)c2O)cn1 [Example 20, 2-(6-methoxypyridin-3-yl)-3-hydroxy-6-[(1-iminoethyl)amino]-4H-1-benzopyran-4-one]
inhibition at 10 µM [2]: 0%
pIC50 [3]: 5.66

CS(=O)(=O)Nc1ccc([N+](=O)[O-])cc1Oc1ccccc1 [Nimesulide, reference compound]
ulcerative side effects ([1]; even at the higher doses tested): ulcerative side effects
ED50 [1, 6]: 5 mg/kg

COc1cccc(C2(O)CCCCC2CN(C)C)c1 (stereo not shown) [Tramadol]
ED50 ([1]; Rattus norvegicus, 4 h): 25.7 mg/kg
MPE 0.5 hrs ([5]; 3 mg/Kg IP, NE = not effective): 26%
MPE 1.5 hrs ([5]; 3 mg/Kg IP, NE = not effective): 53%
MPE 0.5 hrs [5, 7]: 58%
MPE 1.5 hrs [5, 7]: 48%
MPE 3 hrs [5, 7]: 27%
MPE 0.5 hrs [5, 8]: 54%
MPE 1.5 hrs [5, 8]: 64%
MPE 3 hrs [5, 8]: 23%
MPE 0.5 hrs [5, 9]: 81%
MPE 1.5 hrs [5, 9]: 60%
MPE 3 hrs [5, 9]: 43%
ED50 ([5]; Rattus norvegicus, ip, 0.5 h, read-out: ED50 0.5 hrs, IP, calculated from the MPE data at 0.5 hrs, NC = not calculable): 10.9 mg/kg
